The record followed here is PMC8752837, “Structural basis of BAK activation in mitochondrial apoptosis initiation” (Nature Communications, 2022).

Changes are numbered by the printed parent chain.

One assay addresses T1, I81R(3) BAK (Homo sapiens, UniProt Q16611, I81R).
T1 construct: C-terminus truncated recombinant human BAK containing C-terminal 6× histidine tag (MEAS-BAK); made in house; host or cells: E. coli T7 Express pLac I/Y
T1 sequence (Q16611 1-186 I81R limits assumed): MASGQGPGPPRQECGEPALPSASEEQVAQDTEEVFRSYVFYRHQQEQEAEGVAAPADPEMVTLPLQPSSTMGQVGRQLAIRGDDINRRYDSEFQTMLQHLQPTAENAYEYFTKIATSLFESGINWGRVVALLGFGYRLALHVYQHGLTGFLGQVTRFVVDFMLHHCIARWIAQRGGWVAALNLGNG
Kind of assay: Liposome permeabilization assay: BH3 peptide activation of I81R(3) BAK receptor. In kind it is biochemical. As to conditions: 50 nM mutant BAK; Suppl. Fig. 4f. The method, then: We next compared activation of mutant BAK receptors by WT BID BH3 and WT BAK BH3 peptide ligands. At concentrations above 1 µM, both peptide ligands would activate WT or V74A(1) BAK (Supplementary Figs. 3e, 4d, e, and Supplementary Table 1).
We performed liposome permeabilization assays as previously described[43]–[46]. […] (nickel salt) [DGS NTA(Ni), 2.5 μM final concentration in each assay] (Avanti Polar Lipids). We prepared 12.5 mM fluorophore; 8-aminonaphthalene-1, 3, 6-trisulfonic acid, disodium salt (ANTS) and 45 mM quencher; p-xylene-bis-pyridiniumbromide (DPX) in LUV buffer (10 mM HEPES pH 6.8, 200 mM KCl and 5 mM MgCl2). We mixed the lipid film in ANTS/DPX solution by vortexing and sonication (~15 min) followed by extrusion through polycarbonate membrane of 2 μm pore size (Avanti Polar lipids) to generate homogenous large unilamellar vesicles (LUVs). We separated LUVs from free ANTS/DPX by S500 size exclusion chromatography and stored them at 4 °C in the dark. We prepared peptide and protein dilutions in 96-well black flat bottom plates (Costar) kept on ice. ANTS release from permeabilized liposomes causes an increase in fluorescence, which we monitored at 37 °C for 90 min using a CLARIOSTAR microplate reader (BMG Labtech) set at excitation and emission wavelengths of 360 and 530 nm, respectively. We normalized the data relative to maximum and minimum fluorescence induced by 3% CHAPS and buffer controls, respectively. We quantified liposome permabilization by integrating area under curve (AUC) of normalized traces based on the Simpson’s equation, and analyzed that data in Excel and GraphPad Prism. AUC measurements reflect the kinetic and extent of liposome permeabilization and provide quantitative means for comparison between different experimental conditions (e.g., BAK mutants with gross or partial variation in activity). Variability in permeabilization of different liposomes is common and our analyses compare among conditions investigated with the same liposomes. […]

A further assay concerns the target T2, MEAS-BAK-His6 (Homo sapiens, UniProt Q16611).
T2 construct: C-terminus truncated recombinant human BAK containing C-terminal 6× histidine tag (MEAS-BAK); made in house; host or cells: E. coli T7 Express pLac I/Y
T2 sequence (Q16611 1-186 limits assumed): T1 sequence (Q16611 1-186 I81R limits assumed) with R81I
Kind of assay: Surface plasmon resonance. In kind it is binding. As to conditions: 20 °C; for Kd: MEAS-BAK-His6 captured on Ni-NTA HisCap chip, three-fold peptide dilution series injected in triplicate, read-out: SPR KD. The protocol: We conducted SPR experiments at 20 °C using a Pioneer FE optical biosensor (ForteBio) amd histidine-tagged MEAS-BAK-His6 immobilized on polycarboxylate hydrogel-coated gold chips preimmobilized with nitrilotriacetic acid (HisCap chips; ForteBio). We primed the chip in chelating buffer (10 mM HEPES pH 7.4, 150 mM NaCl, 50 µM EDTA, 0.005% Tween20) and preconditioned it at 10 µL/min with three 60 s injections of wash buffer (10 mM HEPES pH 8.3, 150 mM NaCl, 350 mM EDTA, 0.05% Tween20) and one 60 s injection of chelating buffer before charging with a 60 s injection of 500 µM NiCl2 in chelating buffer. After priming into binding buffer (20 mM HEPES pH 8.0, 200 mM NaCl, 1 mM TCEP, 0.01% Tween20), we injected BAK to achieve ~500 RU of captured protein. As reference cell, we charged one flow cell on the chip with Ni^2+ without adding protein. […] We included a series of buffer-only (blank) injections throughout the experiment to account for instrumental noise. […] We processed, double-referenced, solvent corrected, and analyzed the data using the software package Qdat (version 4.3.1.2, ForteBio). We determined kinetic rate constants and affinities by fitting the data to a 1:1 interaction model.

For `CC[C@H](C)[C@H](NC(=O)[C@H](CO)NC(=O)[C@H](CCCNC(=N)N)NC(=O)[C@H](CC(=O)O)NC(=O)[C@H](CCSC)NC(=O)[C@H](CO)NC(=O)[C@H](CC(=O)O)NC(=O)CNC(=O)[C@@H](NC(=O)[C@H](CCC(N)=O)NC(=O)[C@H](C)NC(=O)[C@H](CC(C)C)NC(=O)[C@H](Cc1c[nH]cn1)NC(=O)[C@H](CCCNC(=N)N)NC(=O)[C@H](C)NC(=O)[C@@H](NC(=O)[C@H](CC(N)=O)NC(=O)[C@H](CCCNC(=N)N)NC(=O)[C@@H](NC(=O)[C@@H](NC(=O)[C@H](CC(=O)O)NC(=O)[C@H](CCC(=O)O)NC(C)=O)[C@@H](C)CC)[C@@H](C)CC)[C@@H](C)CC)C(C)C)C(N)=O` [WT BID BH3, reference compound], the “liposome permeabilization by 50 nM I81R(3) BAK receptor” value at I81R(3) BAK was “neither peptide ligands could promote liposome permeabilization”. For the same molecule, on MEAS-BAK-His6 (1:1 interaction model), the SPR kd was 2.61±0.01 ×10-1 s-1 and the Kd was 62.3 ± 0.4 µM. In addition, the kon on MEAS-BAK-His6 (1:1 interaction model, read-out: SPR ka) is 4190 ± 20 M⁻¹ s⁻¹. Further, the “SPR Rmax” value on MEAS-BAK-His6 (~500 RU captured BAK) came out at 26.2±0.1 RU.

In the case of `CC[C@H](C)[C@H](NC(=O)[C@H](C)NC(=O)[C@H](CC(C)C)NC(=O)[C@H](CCC(N)=O)NC(=O)[C@H](CCCNC(=N)N)NC(=O)CNC(=O)[C@@H](NC(=O)[C@H](CCC(N)=O)NC(=O)CNC(=O)[C@H](CCSC)NC(=O)[C@@H](NC(=O)[C@H](CO)NC(=O)[C@H](CO)NC(C)=O)[C@@H](C)O)C(C)C)C(=O)N[C@H](C(=O)NCC(=O)N[C@@H](CC(=O)O)C(=O)N[C@@H](CC(=O)O)C(=O)N[C@H](C(=O)N[C@@H](CC(N)=O)C(=O)N[C@@H](CCCNC(=N)N)C(=O)N[C@@H](CCCNC(=N)N)C(=O)N[C@@H](Cc1ccc(O)cc1)C(N)=O)[C@@H](C)CC)[C@@H](C)CC` [WT BAK BH3], on I81R(3) BAK, the “liposome permeabilization by 50 nM I81R(3) BAK receptor” value was “neither peptide ligands could promote liposome permeabilization”. For the same molecule, the Kd on MEAS-BAK-His6 (1:1 interaction model) stood at 67 µM.
